# Results taken from US6992079B2, “Substituted 11-phenyl-dibenzazepine compounds useful for the treatment or prevention of diseases characterized by abnormal cell proliferation” (President Fellows of Harvard College, priority 1997, dated 2006).
# Read-outs that look alike come from different tables or passages of the source.
# How the values were obtained:
# [1] = tested on: H460 large cell lung carcinoma; assay: Mouse xenograft tumor growth; assay type: in vivo, CD-1 nude mice
# [2] = tested on: A2058 metastatic melanoma; assay: Mouse xenograft tumor growth; assay type: in vivo, CD-1 nude mice
# Description: NCI-A2058 human melanoma cell line was grown as monolayer culture in Minimum essential medium (D-MEM) supplemented with 10% fetal bovine serum (FBS), 0.1 mM non-essential amino acid, 1.0 mM sodium pyruvate, 100U/ml penicillin, 100 μg/ml streptomycin and 0.25 μg/ml amphotericin B and L-alanyl-1-glutamine (2 mM) at 37° C. in an atmosphere of 5% CO2 in air. The tumor cells were routinely subcultured twice weekly by trypsin-EDTA treatment. The cells were harvested from subconfluent logarithmically growing culture by treatment with typsin-EDTA and counted for tumor inoculation.
# An acclimation period of at least 7 days were allowed between animal receipt and commence of tumor inoculation. When the female CD-1 nude mice were more than 6-7 weeks of age (20-25 g), each mouse was subcutaneously injected with 5.0×10^6 NCI-A2058 human melanoma cells in 0.1 ml of PBS solution at the right flank of the mice to induce tumor growth.
# CCRF-CEM = assay: In-Vitro Testing SRB panel: Leukemia; assay type: cell-based
# MOLT-4 = assay: In-Vitro Testing SRB panel: Leukemia; assay type: cell-based; settings: MOLT-4
# NCI-H226 = assay type: cell-based; settings: NCI-H226
# HCT-116 = assay: In-Vitro Testing SRB panel: Colon Cancer; assay type: cell-based; settings: HCT-116
# MALM-3M = assay: In-Vitro Testing SRB panel: Melanoma; assay type: cell-based; settings: MALM-3M
# SK-MEL-2B = assay: In-Vitro Testing SRB panel: Melanoma; assay type: cell-based
# IGROV1 = assay: In-Vitro Testing SRB panel: Ovarian Cancer; assay type: cell-based
# SK-OV-3 = assay: In-Vitro Testing SRB panel: Ovarian Cancer; assay type: cell-based; settings: SK-OV-3
# ACHN = assay: In-Vitro Testing SRB panel: Renal Cancer; assay type: cell-based
# CARI-1 = assay: In-Vitro Testing SRB panel: Renal Cancer; assay type: cell-based
# RXF 393 = assay: In-Vitro Testing SRB panel: Renal Cancer; assay type: cell-based; settings: RXF 393
# NCI/ADR-RES = assay: In-Vitro Testing SRB panel: Breast Cancer; assay type: cell-based
# MDA-MB-231/ATCC = assay: In-Vitro Testing SRB panel: Breast Cancer; assay type: cell-based; settings: MDA-MB-231/ATCC
# [3] = Homo sapiens, read-out: LC50 (the source's name)
structure (smiles),measurement,setting,value
COc1cccc2c1C(c1ccccc1Cl)c1cc(Cl)ccc1N(C(=O)c1ccc([N+](=O)[O-])cc1)C2 (stereo not shown) [Compound 31],tumor growth,[1],showed inhibition of tumor growth
same,tumor growth,[2],showed inhibition of tumor growth
same,TGI,CCRF-CEM,>1.00E−04 Molar
same,GI50,CCRF-CEM; Homo sapiens,1.53 µM
same,CC50,CCRF-CEM; [3],> 100 µM
same,Percent Growth,CCRF-CEM; log10 conc -4 Molar,2%
same,Percent Growth,CCRF-CEM; log10 conc -5 Molar,21%
same,Percent Growth,CCRF-CEM; log10 conc -6 Molar,56%
same,Percent Growth,CCRF-CEM; log10 conc -7 Molar,94%
same,Percent Growth,CCRF-CEM; log10 conc -8 Molar,111%
same,GI50,MOLT-4; Homo sapiens,0.336 µM
same,CC50,MOLT-4; [3],> 100 µM
same,TGI,MOLT-4,>1.00E−04 Molar
same,Percent Growth,MOLT-4; log10 conc -4 Molar,6%
same,Percent Growth,MOLT-4; log10 conc -5 Molar,14%
same,Percent Growth,MOLT-4; log10 conc -6 Molar,24%
same,Percent Growth,MOLT-4; log10 conc -7 Molar,79%
same,Percent Growth,MOLT-4; log10 conc -8 Molar,95%
same,GI50,NCI-H226; Homo sapiens,3.67 µM
same,CC50,NCI-H226; [3],> 100 µM
same,TGI,NCI-H226,>1.00E−04 Molar
same,Percent Growth,NCI-H226; log10 conc -4 Molar,13%
same,Percent Growth,NCI-H226; log10 conc -5 Molar,34%
same,Percent Growth,NCI-H226; log10 conc -6 Molar,71%
same,Percent Growth,NCI-H226; log10 conc -7 Molar,90%
same,Percent Growth,NCI-H226; log10 conc -8 Molar,90%
same,TGI,HCT-116,1.00E−04 Molar
same,Percent Growth,HCT-116; log10 conc -4 Molar,12%
same,Percent Growth,HCT-116; log10 conc -5 Molar,17%
same,Percent Growth,HCT-116; log10 conc -6 Molar,32%
same,Percent Growth,HCT-116; log10 conc -7 Molar,92%
same,Percent Growth,HCT-116; log10 conc -8 Molar,100%
same,GI50,HCT-116; Homo sapiens,0.502 µM
same,CC50,HCT-116; [3],> 100 µM
same,CC50,MALM-3M; [3],> 100 µM
same,TGI,MALM-3M,>1.00E−04 Molar
same,Percent Growth,MALM-3M; log10 conc -4 Molar,97%
same,Percent Growth,MALM-3M; log10 conc -5 Molar,96%
same,Percent Growth,MALM-3M; log10 conc -6 Molar,42%
same,Percent Growth,MALM-3M; log10 conc -7 Molar,123%
same,Percent Growth,MALM-3M; log10 conc -8 Molar,117%
same,GI50,SK-MEL-2B; Homo sapiens,7.47 µM
same,CC50,"SK-MEL-2B; Homo sapiens, SK-MEL-2B, read-out: LC50 (the source's name)",> 100 µM
same,TGI,SK-MEL-2B; SK-MEL-2B,>1.00E−04 Molar
same,Percent Growth,"SK-MEL-2B; SK-MEL-2B, log10 conc -4 Molar",31%
same,Percent Growth,"SK-MEL-2B; SK-MEL-2B, log10 conc -5 Molar",48%
same,Percent Growth,"SK-MEL-2B; SK-MEL-2B, log10 conc -6 Molar",62%
same,Percent Growth,"SK-MEL-2B; SK-MEL-2B, log10 conc -7 Molar",87%
same,Percent Growth,"SK-MEL-2B; SK-MEL-2B, log10 conc -8 Molar",92%
same,GI50,"IGROV1; Homo sapiens, IGROV-1",2.13 µM
same,CC50,"IGROV1; Homo sapiens, IGROV-1, IGROV1, read-out: LC50 (the source's name)",> 100 µM
same,TGI,IGROV1; IGROV1,>1.00E−04 Molar
same,Percent Growth,"IGROV1; IGROV1, log10 conc -4 Molar",29%
same,Percent Growth,"IGROV1; IGROV1, log10 conc -5 Molar",35%
same,Percent Growth,"IGROV1; IGROV1, log10 conc -6 Molar",57%
same,Percent Growth,"IGROV1; IGROV1, log10 conc -7 Molar",80%
same,Percent Growth,"IGROV1; IGROV1, log10 conc -8 Molar",94%
same,GI50,SK-OV-3; Homo sapiens,> 100 µM
same,CC50,SK-OV-3; [3],> 100 µM
same,TGI,SK-OV-3,>1.00E−04 Molar
same,Percent Growth,SK-OV-3; log10 conc -4 Molar,63%
same,Percent Growth,SK-OV-3; log10 conc -5 Molar,85%
same,Percent Growth,SK-OV-3; log10 conc -6 Molar,88%
same,Percent Growth,SK-OV-3; log10 conc -7 Molar,102%
same,Percent Growth,SK-OV-3; log10 conc -8 Molar,97%
same,TGI,ACHN,>1.00E−04 Molar
same,GI50,ACHN; Homo sapiens,0.803 µM
same,CC50,ACHN; [3],> 100 µM
same,Percent Growth,ACHN; log10 conc -4 Molar,8%
same,Percent Growth,ACHN; log10 conc -5 Molar,26%
same,Percent Growth,ACHN; log10 conc -6 Molar,45%
same,Percent Growth,ACHN; log10 conc -7 Molar,95%
same,Percent Growth,ACHN; log10 conc -8 Molar,92%
same,TGI,CARI-1; CARI-1,>1.00E−04 Molar
same,Percent Growth,"CARI-1; CARI-1, log10 conc -4 Molar",4%
same,Percent Growth,"CARI-1; CARI-1, log10 conc -5 Molar",37%
same,Percent Growth,"CARI-1; CARI-1, log10 conc -6 Molar",48%
same,Percent Growth,"CARI-1; CARI-1, log10 conc -7 Molar",80%
same,Percent Growth,"CARI-1; CARI-1, log10 conc -8 Molar",103%
same,GI50,CARI-1; Homo sapiens,0.888 µM
same,CC50,"CARI-1; Homo sapiens, CARI-1, read-out: LC50 (the source's name)",> 100 µM
same,GI50,RXF 393; Homo sapiens,13.1 µM
same,CC50,RXF 393; [3],> 100 µM
same,TGI,RXF 393,>1.00E−04 Molar
same,Percent Growth,RXF 393; log10 conc -4 Molar,39%
same,Percent Growth,RXF 393; log10 conc -5 Molar,52%
same,Percent Growth,RXF 393; log10 conc -6 Molar,81%
same,Percent Growth,RXF 393; log10 conc -7 Molar,96%
same,Percent Growth,RXF 393; log10 conc -8 Molar,96%
same,TGI,NCI/ADR-RES,>1.00E−04 Molar
same,GI50,NCI/ADR-RES; Homo sapiens,3.88 µM
same,CC50,NCI/ADR-RES; [3],> 100 µM
same,Percent Growth,NCI/ADR-RES; log10 conc -4 Molar,12%
same,Percent Growth,NCI/ADR-RES; log10 conc -5 Molar,27%
same,Percent Growth,NCI/ADR-RES; log10 conc -6 Molar,84%
same,Percent Growth,NCI/ADR-RES; log10 conc -7 Molar,101%
same,Percent Growth,NCI/ADR-RES; log10 conc -8 Molar,95%
same,CC50,MDA-MB-231/ATCC; [3],> 100 µM
same,TGI,MDA-MB-231/ATCC,>1.00E−04 Molar
same,Percent Growth,MDA-MB-231/ATCC; log10 conc -4 Molar,56%
same,Percent Growth,MDA-MB-231/ATCC; log10 conc -5 Molar,49%
same,Percent Growth,MDA-MB-231/ATCC; log10 conc -6 Molar,38%
same,Percent Growth,MDA-MB-231/ATCC; log10 conc -7 Molar,50%
same,Percent Growth,MDA-MB-231/ATCC; log10 conc -8 Molar,90%
same,TGI,ERVX; ERVX,>1.00E−04 Molar
same,Percent Growth,"ERVX; ERVX, log10 conc -4 Molar",7%
same,Percent Growth,"ERVX; ERVX, log10 conc -5 Molar",27%
same,Percent Growth,"ERVX; ERVX, log10 conc -6 Molar",80%
same,Percent Growth,"ERVX; ERVX, log10 conc -7 Molar",103%
same,Percent Growth,"ERVX; ERVX, log10 conc -8 Molar",100%
same,GI50,ERVX; Homo sapiens,3.65 µM
same,CC50,"ERVX; Homo sapiens, read-out: LC50",> 100 µM
